Patent publication US5859032A, “Pyridine derivative, anti-ulcer drug, and antibacterial drug” (priority 1996, dated 1999)

Legend:
[1] = test system: isolated gastric fundic gland; experiment: CAP: Acid Secretion Inhibition Test In Vitro ([14C]-aminopyrine uptake test); assay type: cell-based, Japanese White rabbit; details: 10^-5 M, histamine 10^-5 M, 37° C.; for inhibition at 10 µM: Oryctolagus cuniculus, 40 min, read-out: CAP: acid secretion inhibitory rate
Protocol: CAP: Acid Secretion Inhibition Test In Vitro
The acid secretion inhibitory activity in a cell level is studied. It can also be used for studying the mechanism of the effect. […]
ii-a) Preparation of isolated gastric fundus gland suspension
First, an isolated gastric fundic gland sample was prepared. Namely, a male Japanese White rabbit (2.5 to 3 kg) was anesthetized to death with Nembutal™ and then the abdomen was incised. Immediately thereafter, the stomach was removed and, after its pyloric and cardiac antrum were severed, incised along its greater curvature into two sheets. The gastric contents adhering to the mucosal surface was washed out with ice-cooled PBS (-) and then carefully washed therein. The gastric wall was spread on a cork board with its mucosal surface facing up and the feed and mucus thereon were completely removed with sterile gauze. The mucosa was separated therefrom by a spatula and then collected in ice-cooled PBS (-). After being washed twice with PBS (-), the mucosa was minced into 2-3 mm^3 pieces by scissors. These pieces were further washed twice with a nutrient solution. The nutrient solution comprises 132.4 mM of NaCl, 5.4 mM of KCl, 5 mM of Na2 HPO4. 12H2 O, 1 mM of NaH2 PO4. 2H2 O, 1.2 mM of MgSO4, 1 mM of CaCl 2, 25 mM of HEPES, 2 mg/ml of glucose, and 1 mg/ml of BSA. Into 70 ml of the nutrient solution containing 1 mg/ml of collagenase, minced mucosal pieces were dispersed and intensely stirred in a conical flask with a stirrer at 37° C. for 40 to 60 minutes. During this period, 100% O2 was sprayed on the nutrient solution surface and the pH was appropriately measured such that it was immediately adjusted to pH 7.4, when the value was therebelow, with a base. The nutrient solution was added to the reaction solution so as to attain the total amount of about 200 ml. After being filtered through a mesh, the suspension was divisionally introduced into 50 ml centrifuge tubes and left for 15 minutes such that gastric fundic gland was deposited. The supernatant was repeatedly removed by an aspirator, dispersed in the nutrient solution, and then left such that the gastric fundic gland was washed three times. At this time, without using a pipette, the suspension was alternately introduced into two centrifuge tubes so as to effect dispersion. The number of cells was counted under microscope and adjusted to 1.6×10^6 cells/ml. […]
ii-b) [^14 C]-aminopyrine uptake test
Then, [^14 C]-aminopyrine uptake test was performed. After an Eppendorf tube was weighed, 10 μl (final concentration: 10^-5 M) of histamine dissolved in the above-mentioned nutrient solution, 10 μl (final concentration: 10^-5 M) of the test compound dissolved in DMSO, and 10 μl (final concentration: 0.05 μCi/ml) of [^14 C]-aminopyrine diluted with the nutrient solution were introduced therein and then 970 μl of the isolated gastric fundic gland suspension prepared above was added thereto. Subsequently, this mixture was shaken at 37° C. for 40 minutes at 125 cycles/minute. After being centrifuged for 30 minutes, 200 μl of its supernatant was collected into a mini-vial, while the rest was removed by an aspirator. The gland pellet was completely dried as the tube with its lid being opened was kept for one night in a drying oven at 80° C. and then the lid was closed and the weight was determined at room temperature. Then 100 μl of 1N KOH was added thereto and the tube with its lid being closed was treated at 60° C. for 1 to 2 hours so as to dissolve the pellet. Then, the contents thereof were transferred to a mini-vial. Into the mini-vial containing the supernatant or gland pellet, 4 ml of Atomlite™ was added and then the radioactivity was measured by a liquid scintillation counter. Here, after the radioactivity of the gland pellet was corrected by using a sample in which 20 mM of NaSCN was added so as to cancel the hydrogen ion concentration gradient, the integration ratio of aminopyrine specifically trapped by the gland pellet was calculated. […]

[2] = test system: stress ulcer formation (rats); experiment: WIS: Restraint and Water Immersion Stress-Induced Ulcer Inhibition Test; assay type: in vivo, rat (male Crj:SD or Slc:SD); details: rat, 100 mg/kg, oral, 7 hours water immersion stress
Protocol: WIS: Restraint and Water Immersion Stress-Induced Ulcer Inhibition Test
The degree of inhibition of the stress ulcer formation is tested.
Male Crj:SD or Slc:SD rats (6 to 7-week-old) were fasted overnight, but allowed free access to water. Each group has 5 to 8 of these rats. […] To a control group, the vehicle was administered. 10 minutes later, the rats were placed in a stress cage and immersed to the level of xipfoid process in a water bath (21° C.) for 7 hours. At the end of the stress, the rats were sacrificed by inhalation of ether or carbon dioxide. Then, the stomach of each was removed, inflated by injecting 10 ml of 5% formalin neutral buffer solution, and immersed in 1% formalin neutral buffer solution for 30 minutes or more to be fixed. The stomach was incised along the greater curvature and then the length of each erosion in the glandular portion was determined under dissecting microscope. The sum of the length of erosions per stomach was defined as ulcer index (UI).
The effect obtained when 100 mg/kg of the sample compound had been administered was expressed as ulcer formation inhibitory rate (%) as follows:
ulcer formation inhibitory rate (%)=(1-(UI in sample group/UI in control

[3] = MTT: Cell Damaging and Protecting Effect Test; assay type: cell-based, Japanese White rabbit; details: rabbit, gastric mucosa cells, 10^-4 M, 37° C., smaller value is better, read-out: MTT: cell damaging rate
From the text: MTT: Cell Damaging and Protecting Effect Test
It is confirmed that there is no toxicity in cell level. Those having a toxicity in cell level are inappropriate as an anti-ulcer drug.
A male Japanese White rabbit (2.5 to 3 kg) was anesthetized to death by Nembutal™ and, immediately thereafter, its stomach was removed. The greater curvature of the stomach was incised so as to remove the stomach contents therefrom. After the mucosal surface was washed with HBSS (Hanks' Balanced Salt Solution), the stomach in ice-cooled HBSS was transferred to a laboratory. Then, after the pyloric antrum was removed, the gastric corpus mucosa was separated by a spatula and then minced into 2 to 3 mm^3 pieces in BME (Basal Medium Eagle). Thereafter, these pieces were shaken at 120 to 130 cycles/minute for 15 minutes at 37° C. in BME 60 ml containing 280 U/ml of dispase and 30 to 50 U/ml of collagenase. Here, the concentration of collagenase was appropriately changed for each lot in view of the state of cells. The pieces were washed twice with EBSS (Earle's Balanced Salt Solution) containing 1 mM of EDTA and then shaken in MEM (Minimum Essential Medium) containing 1 mM of EDTA at 37° C. for 5 minutes. Subsequently, they were shaken in the dispase and collagenase having the same concentrations as those mentioned above for 15 minutes so as to remove the supernatant and then further shaken at 37° C. for 50 to 60 minutes at 120 to 130 cycles/minute. Then, after being washed twice with HBSS, Ham F12 containing 2% of Ultrocer GT™ was used to attain the concentration of 1×10^6 cells/ml. Thus formed suspension was dispensed in each well of a 96-well plate by 200 μl. The plate was incubated in the atmosphere composed of 5% CO2 and 95% air at 37° C. for three days so as to attain a confluent state and then subjected to MTT assay.
The sample compound was dissolved in DMSO so as to attain a concentration of 10^-2 M and then diluted with HBSS containing 2% of Ultrocer G™ so as to attain a final concentration of 10^-4 M. To each group, which 8 wells were used for, 10 μl of MTT reagent was added immediately after 100 μl of the medium in each well was exchanged for same volume of the resulting solution of the sample compound. After being incubated in an atmosphere composed of 5% CO2 and 95% air at 37° C. for 4 hours, thus formed solution was centrifuged and then its supernatant was discarded. Subsequently, 100 μl of 100% ethanol was added to the residue so as to dissolve MTT formazan. Then, the absorbance (OD: 570 to 630) was measured by a microplate reader. This method utilizes a phenomenon in which MTT is changed to MTT formazan only by mitochondria of living cells so as to change color.
The cell damaging or cell protecting effect of the sample compound at the final concentration of 10^-4 M was expressed as cell damaging rate (%) as follows:
cell damaging rate (%)=(1-(absorbance in sample group/absorbance in control
Accordingly, the smaller value is better in the cell damaging rate.

[4] = test system: mice; details: mouse, in vivo
Protocol: AT: Single Dose Toxicity Pretest
Male Slc:ICR mice (5-week-old) were used. Each group has 3 to 5 mice and each mouse was fasted, but allowed free access to water, for 4 to 5 hours from 9 a.m. in the test day. Then, 2,000 mg/10 ml/kg of the sample compound dissolved or suspended in an aqueous solution of 0.5% sodium carboxymethyl cellulose was orally administered thereto. To a control, only the vehicle was administered. […] The body weight was measured before and after the fasting as well as at the same time everyday. The dead animals were immediately subjected to autopsy and their organs were observed microscopically. Also, the living animals were sacrificed with ether or carbon dioxide one week after the administration and then their organs were observed microscopically.
The toxicity at the single dose of 2,000 mg/kg of the sample compound was expressed as being classified into 5 levels.
5: Mortality rate is 0%; no toxicity is found at all both in behavior and organs.
4: Mortality rate is 0%; while no toxicity is found in organs, slight toxicity is observed in behavior and body weight increase.
3: While there is a dead animal (though not all the animals are dead), no toxicity is found in organs.
2: Regardless of whether there is a dead animal or not, toxicity is found in organs.
1: All the animals are dead.

[5] = test system: gastric acid secretion (pylorus-ligated, histamine-stimulated rats); experiment: VOL, TAO: Acid Secretion Inhibition Test In Vivo; parameters: species or system rat (male Crj:Donryu); details: rat, 100 mg/kg, oral; histamine 30 mg/kg s.c.
Protocol: VOL, TAO: Acid Secretion Inhibition Test In Vivo
Inhibitory effect on acid secretion in vivo is confirmed.
Male Crj:Donryu rats (7-week-old) were fasted overnight but allowed free access to water. In each group, 8 to 10 of these rats were used under urethane anesthesia (1.25 g/kg). […] 30 minutes later, the abdomen of each was incised and the pylorus was ligated. 30 minutes after the ligation, 30 mg/kg of histamine dissolved in physiological saline was subcutaneously administered and, 3 hours thereafter, the rat was sacrificed with carbon dioxide. Immediately thereafter, each stomach was removed and the gastric contents were collected and each volume was determined. The total acid output was determined by titration of the gastric juice with 0.1N NaOH.
With respect to the gastric juice volume (VOL) and the total acid output (TAO), the effects obtained when 100 mg/kg of the sample compound had been administered were expressed as their respective inhibitory rates (%) as follows:
each inhibitory rate (%)=(1-(value in sample group/value in control

[6] = test system: gastric mucosa; experiment: PD: Gastric Mucosal Integrity Test; assay type: in vivo, rat (male CDj:SD); parameters: key: 5: Same as the control with no recognizable damage at all.; 4: Though a slight PD-decreasing tendency suggesting a slight possibility of mucosal damage is found, there is no problem.; 3: Though a weak decrease in PD and a possibility of a weak mucosal damage is recognized, there is no substantial problem.; 2: Medium degree of decrease in PD is found and a mucosal damage is recognized.; 1: Heavy degree of decrease in PD is found and a remarkable mucosal damage is recognized; details: rat, 100 mg/kg into chamber, 60 minutes
Protocol: PD: Gastric Mucosal Integrity Test
In this case, since the sample compound has a necrotizing effect, it is inappropriate as an anti-ulcer medicament.
Therefore, the gastric mucosal potential difference (PD), which reflects the integrity of the gastric mucosa, is measured so as to confirm that the sample compound has no damaging effect on gastric mucosa, which is toxicity at gastric mucosal level.
Male CDj:SD rats (7 to 8-week-old) were fasted overnight, but allowed free access to water, and then, under urethane anesthesia (1.25 g/kg, i.p.), fixed to a cork board on its back. The abdomen of each rat was incised, and a small incision was made in the forestomach. Then, the inside of the stomach was washed with physiological saline heated at 37° C. From the forestomach, along the greater curvature thereof, the stomach was incised without damaging blood vessels. After the height of the cork board was adjusted on a jack, the stomach was mounted on ex vivo chamber. The area of the gastric mucosa exposed to the inside of this chamber was 2.5 cm^2. The inside of the chamber was perfused with physiological saline warmed at 37° C. by micro tube pump. By using an agar bridge containing 3M KCl, the potential difference between the chamber and the abdominal cavity was measured by a PD meter. Here, the rectal temperature was measured to control the body temperature during the experiment. […] To a control, the vehicle was administered.
The change in PD during 60 minutes after the administration of 100 mg/kg of the sample compound was collectively studied and, with reference to the positive control, classified into 5 levels as follows:
5: Same as the control with no recognizable damage at all.
3: Though a weak decrease in PD and a possibility of a weak mucosal damage is recognized, there is no substantial problem.
2: Medium degree of decrease in PD is found and a mucosal damage is recognized.
1: Heavy degree of decrease in PD is found and a remarkable mucosal damage is recognized.

SMILES	inhibition at 10 µM [1]	WIS: ulcer formation inhibitory rate [2]	cytotoxicity at 4 h, 100 µM [3]	AT: toxicity at the single dose (5 levels) [4]	TAO: total acid output inhibitory rate [5]	VOL: gastric juice volume inhibitory rate [5]	PD: change in gastric mucosal potential difference (5 levels) [6]	CAP: acid secretion inhibitory rate ([1]; 40 minutes)
CC(C)=CCC/C(C)=C/COc1ccc(OC/C=C(\C)CCC=C(C)C)c(C(=O)NCCc2ccncc2)c1 [Example 5, 4-[2-(2,5-digeranyloxybenzoylamino)ethyl]pyridine]	99%	35%	-17%					
COc1ccc(NCCNC(=O)c2ccc(OC/C=C(\C)CCC=C(C)C)cc2)cn1 [Example 9, 3-[2-(4-geranyloxybenzoylamino)ethylamino]-6-methoxypyridine]	77%	42%	8%					
CC(C)=CCC/C(C)=C/COc1ccc(C(=O)NCCSc2ccc(C(F)(F)F)cn2)cc1 [Example 12, 2-[2-(4-geranyloxybenzoylamino)ethylthio]-5-trifluoromethylpyridine]		37%	-14%	5	-10%	-5%	5	
CC(C)Cc1cc(C(=O)NCCc2ccncc2)ccc1OCc1ccc(F)cc1 [Example 14, 4-[2-[4-(4-fluorobenzyloxy)-3-isobutylbenzoylamino]ethyl]pyridine]	97%	91%		4				
CC(C)Cc1cc(C(=O)NCCc2ccncc2)ccc1OCc1ccc(F)cc1.Cl [Example 15, 4-[2-[4-(4-fluorobenzyloxy)-3-isobutylbenzoylamino]ethyl]pyridine hydrochloride]		86%						95.1%
